The values below come from patent US20060154235A1, “Human hepatocyte-like cells and uses thereof” (Takahiro Ochiya, priority 2005, published 2006).

The data set relates to CYP1A1. The experiment in a line: P450-GLO activity assay, CYP1A1 induction in hMSC-derived hepatocytes. The following applies: inducer for 2 days.

Turning to `Cc1ccc2cc3c(ccc4ccccc43)c3c2c1CC3` [3-methylcholanthrene], the “CYP1A1 activity after inducer treatment” value was “induced”.
